Measurements taken from patent publication US5672582A, “Thrombin inhibitors” (Merck & Co., Inc., priority 1994, dated 1997).
Like-named read-outs stand apart in the source and are kept apart here.

Assays:
[1] = target: T1, plasma kallikrein (p-Kal) (Homo sapiens, UniProt P03952); assay: Chromogenic assay, plasma kallikrein; format: biochemical; details: Table 3
T1 construct: plasma kallikrein (p-Kal)

Factor Xa (fXa) = target: T2, Factor Xa (fXa) (Homo sapiens, UniProt P00742); assay: Chromogenic assay, Factor Xa; format: biochemical; details: Table 3
T2 construct: Factor Xa (fXa), plasma kallikrein (p-Kal), plasmin (Pl)

[2] = target: activated protein C (APC) (Homo sapiens, UniProt P04070); assay: Chromogenic assay, activated protein C; format: biochemical; details: Table 3
plasmin (Pl) = plasmin (Pl) (Homo sapiens, UniProt P00747); assay: Chromogenic assay, plasmin; format: biochemical; details: Table 3
bovine trypsin = target: T3, bovine trypsin (Bos taurus, UniProt P00760); assay: Proteinase inhibition assay, bovine trypsin; format: biochemical
T3 sequence (P00760 24-246): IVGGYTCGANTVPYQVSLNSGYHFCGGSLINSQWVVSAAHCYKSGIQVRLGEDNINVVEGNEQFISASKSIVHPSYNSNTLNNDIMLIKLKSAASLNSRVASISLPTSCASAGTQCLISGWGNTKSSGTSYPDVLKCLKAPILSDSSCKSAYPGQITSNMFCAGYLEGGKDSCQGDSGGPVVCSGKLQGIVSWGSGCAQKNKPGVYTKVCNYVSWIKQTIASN
Description: (§1) Assays of human α-thrombin and bovine trypsin were performed at 25° C. in 0.05M TRIS buffer pH 7.4, 0.15M NaCl, 0.1% PEG. Trypsin assays also contained 1 mM CaCl2.
In assays wherein rates of hydrolysis of a p-nitroanilide (pna) substrate were determined, a Thermomax 96-well plate reader was used was used to measure (at 405 nm) the time dependent appearance of p-nitroaniline. sar-PR-pna was used to assay human α-thrombin (Km =125 μM) and bovine trypsin (Km =125 μM). "Sar" is the three letter abbreviation for the amino acid sarcosine (N-methylglycine). p-Nitroanilide substrate concentration was determined from measurements of absorbance at 342 nm using an extinction coefficient of 8270 cm^-1 M^-1.
(§2) Times required to achieve equilibration between enzyme and inhibitor were determined in control experiments. Initial velocities of product formation in the absence (Vo) or presence of inhibitor (Vi) were measured. Assuming competitive inhibition, and that unity is negligible compared Km /[S], [S]/e, and [I]/e (where [S], [I], and e respectively represent the total concentrations, of substrate, inhibitor and enzyme), the equilibrium constant (Ki) for dissociation of the inhibitor from the enzyme can be obtained from the dependence of Vo /Vi on [I] shown in equation 1.
Using the assays described above, the following additional embodiments of the invention were evaluated and shown to be selective for inhibiting thrombin. The constants were determined at pH 7.4 in buffer containing 0.05M Tris, 0.15M NaCl, 0.1% PEG-8000 at room temperature.

[3] = target: tissue plasminogen activator (t-PA) (Homo sapiens, UniProt P00750); assay: Chromogenic assay, tissue plasminogen activator; format: biochemical; details: Table 3, read-out: Ki (nM) tPA
human α-thrombin = human α-thrombin (Homo sapiens, UniProt P00734); assay: Proteinase inhibition assay, human α-thrombin; format: biochemical; details: for Ratio: Ki trypsin / Ki thrombin
Description: as §1
"Sar" is the three letter abbreviation for the amino acid sarcosine (N-methylglycine). p-Nitroanilide substrate concentration was determined from measurements of absorbance at 342 nm using an extinction coefficient of 8270 cm^-1 M^-1.
Concentrations of stock solutions of Z-GPR-afc were determined from measurements of absorbance at 380 nm (extinction coefficient=12600 cm^-1 M^-1) of the 7-amino-4-trifluoromethyl coumarin produced upon complete hydrolysis of an aliquot of the stock solution by thrombin.
as §2
The constants were determined at pH 7.4 in buffer containing 0.05M Tris, 0.15M NaCl, 0.1% PEG-8000 at room temperature.

[4] = test system: FeCl3 induced arterial thrombosis in rats; assay: Rat ferric chloride assay; format: in vivo
Description: In the assay, male Sprague-Dawley rats (body weights 200-350 grams) were anesthetized with dial-urethane solution (0.1 ml/100 gm body weight i.p.), and a lateral tail vein was cannulated with a 23 gauge needle connected to a 12 inch length of PE50 robing. The robing was attached to a 3-way valve by a tubing adapter. Saline (control) or test compound, as appropriate, was administered via the tail vein catheter. A tracheostomy was performed with a 0.75 inch length of PE205 tubing. The right carotid artery was exposed and a 1.3 mm diameter Doppler flow probe was placed on the vessel. Body temperature was maintained at 37° C. using a heat lamp.
Rats (8-10/group) were randomized to continuous intravenous infusions of saline or test compound administered via the tail vein at a rate of 0.028 ml/min. Treatment infusions were initiated 60 min before the placement of a 3 mm square piece of Whatman No. 1 filter paper saturated with 35% FeCl3 onto the exposed carotid artery distal to the flow probe. […] Time to occlusion was defined as the time from application of FeCl3 to thrombotic occlusion of the vessel.

[5] = Oral bioavailability in rats; format: in vivo; details: rat, oral (gastric lavage), plasma
Description: (§3) Concentration was determined in animal plasma after oral (gastric lavage) administration.
Rats were anesthetized and instrumented with indwelling left jugular vein and left carotid artery catheters for test agent administration and for serial blood sampling, respectively. One day after instrumentation, blood samples were obtained before saline or inhibitor administration and at increasing time points after the oral administration.
Thrombin inhibitor concentrations in plasma were determined by the inactivation of a known amount of thrombin (where [thrombin]>>Ki of inhibitor) from an aliquot of acid-neutralized rat plasma. 0.25 ml of rat platelet poor plasma was mixed with 25 μl of 3M perchloric acid. The sample was centrifuged (14,000×g for 10 minutes) and 0.2 ml of the supernatant was neutralized with 0.43 ml of 1M TrisB 0.15M NaCl/0.1% PEG 8000 pH 7.8. 50-100 μl of acid-neutralized rat plasma was mixed with 50-100 μl of 0.03-3 μM thrombin. After equilibration, 5-10 μl of 5 mM Sar-Pro-Arg-pna (for <0.1 μM thrombin) or Spectrozyme PCa (for >0.1 μM thrombin) was added. The observed inhibited velocity was compared to inhibited velocities from a standard curve generated from rat plasma containing known amounts of inhibitor treated in an identical manner. The table below summarizes the results from these studies.

[6] = Oral bioavailability in rhesus monkeys; format: in vivo, rhesus monkey; details: oral (nasogastric tube), plasma
Description: as §3
In monkeys, the test agent was administered intravenously as a bolus or orally by pediatric nasogastric tube. For intravenous studies, the sterile agent was dissolved in sterile 0.9% saline and administered via 21 g butterfly, usually via the brachial vein. For oral studies, the sterile agent was dissolved in sterile water and administered via a nasogastric tube. Blood samples (4 cc each) were collected with a plastic syringe containing 3.8% sodium citrate via venipuncture (at sites other than that of drug administration) for drug plasma levels and thrombin clotting time assay. The monkeys were given water ad lib. Monkeys were allowed to recover 14 days before being used again in a similar protocol.
(§4) Thrombin inhibitor concentrations in plasma were determined by the inactivation of a known amount of thrombin (where [thrombin]>>Ki of inhibitor) from an aliquot of acid-neutralized rat plasma. 0.25 ml of rat platelet poor plasma was mixed with 25 μl of 3M perchloric acid. The sample was centrifuged (14,000×g for 10 minutes) and 0.2 ml of the supernatant was neutralized with 0.43 ml of 1M TrisB 0.15M NaCl/0.1% PEG 8000 pH 7.8. 50-100 μl of acid-neutralized rat plasma was mixed with 50-100 μl of 0.03-3 μM thrombin. […]

[7] = Oral bioavailability in dogs; format: in vivo; details: dog, oral (gastric lavage), plasma
Description: as §3
In dogs, the test agent was administered intravenously as a bolus or orally by gastric lavage. For intravenous studies, the sterile agent is dissolved in sterile 0.9% saline and administered via 19 g butterfly, usually via the saphenous vein. For oral studies, the sterile agent was dissolved in sterile water and administered via a feeding tube. Blood samples (5 cc each) were collected with a plastic syringe containing 3.8% sodium citrate via venipuncture (at sites other than that of drug administration) for drug plasma levels and thrombin clotting time assay. Dogs were allowed to recover 14 days before being used again in a similar protocol.
as §4, with “thrombin. After equilibration, 5-10 μl of 5 mM Sar-Pro-Arg-pna (for <0.1 μM thrombin) or Spectrozyme PCa (for >0.1 μM thrombin) was added.” for “thrombin.”

[8] = Table 2, pH 7.4, 0.05M Tris, 0.15M NaCl, 0.1% PEG-8000, room temperature, read-out: Ki (nM) Trypsin
[9] = Table 2, pH 7.4, 0.05M Tris, 0.15M NaCl, 0.1% PEG-8000, room temperature, read-out: Ki (nM) Thrombin
[10] = Table 1, 25° C., 0.05M TRIS pH 7.4, 0.15M NaCl, 0.1% PEG, 1 mM CaCl2, read-out: Ki (μM) Trypsin
[11] = Table 1, 25° C., 0.05M TRIS pH 7.4, 0.15M NaCl, 0.1% PEG, read-out: Ki (μM) Thrombin

plasmin (Pl), sequence (P00747 581-810 limits assumed, species assumed): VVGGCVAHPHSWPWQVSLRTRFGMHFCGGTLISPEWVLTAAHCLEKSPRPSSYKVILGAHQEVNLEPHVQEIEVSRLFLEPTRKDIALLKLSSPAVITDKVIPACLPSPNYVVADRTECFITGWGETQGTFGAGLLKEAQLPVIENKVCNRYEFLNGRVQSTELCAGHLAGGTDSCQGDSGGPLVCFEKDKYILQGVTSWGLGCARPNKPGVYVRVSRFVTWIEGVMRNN
plasmin (Pl), sequence (P00747 97-580 limits assumed, species assumed): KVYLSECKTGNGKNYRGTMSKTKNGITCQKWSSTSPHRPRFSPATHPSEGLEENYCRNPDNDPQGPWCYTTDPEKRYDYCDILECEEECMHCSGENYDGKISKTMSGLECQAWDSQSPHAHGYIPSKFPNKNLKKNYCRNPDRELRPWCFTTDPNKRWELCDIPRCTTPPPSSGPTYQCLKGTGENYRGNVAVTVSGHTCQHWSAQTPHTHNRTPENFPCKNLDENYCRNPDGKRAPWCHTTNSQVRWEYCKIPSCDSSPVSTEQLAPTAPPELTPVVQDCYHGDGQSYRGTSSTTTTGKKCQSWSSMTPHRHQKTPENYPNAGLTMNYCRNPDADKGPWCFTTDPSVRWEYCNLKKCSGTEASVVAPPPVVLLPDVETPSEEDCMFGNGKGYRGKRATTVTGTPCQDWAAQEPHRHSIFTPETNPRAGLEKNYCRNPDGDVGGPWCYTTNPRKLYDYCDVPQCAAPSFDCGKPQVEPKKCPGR
T2 sequence (P00742 235-488 limits assumed): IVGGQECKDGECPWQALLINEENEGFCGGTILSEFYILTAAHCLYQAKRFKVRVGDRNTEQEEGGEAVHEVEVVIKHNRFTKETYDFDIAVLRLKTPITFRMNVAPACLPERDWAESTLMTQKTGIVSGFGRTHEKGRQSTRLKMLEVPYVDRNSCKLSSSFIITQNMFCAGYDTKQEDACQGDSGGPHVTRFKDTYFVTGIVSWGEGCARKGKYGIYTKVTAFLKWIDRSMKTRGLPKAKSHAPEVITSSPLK
T2 sequence (P00742 41-179 limits assumed): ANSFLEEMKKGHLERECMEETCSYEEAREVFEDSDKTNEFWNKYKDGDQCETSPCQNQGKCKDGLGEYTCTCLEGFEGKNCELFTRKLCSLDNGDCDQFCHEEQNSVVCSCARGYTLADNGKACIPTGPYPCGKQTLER
T1 sequence (P03952 391-638 limits assumed, species assumed): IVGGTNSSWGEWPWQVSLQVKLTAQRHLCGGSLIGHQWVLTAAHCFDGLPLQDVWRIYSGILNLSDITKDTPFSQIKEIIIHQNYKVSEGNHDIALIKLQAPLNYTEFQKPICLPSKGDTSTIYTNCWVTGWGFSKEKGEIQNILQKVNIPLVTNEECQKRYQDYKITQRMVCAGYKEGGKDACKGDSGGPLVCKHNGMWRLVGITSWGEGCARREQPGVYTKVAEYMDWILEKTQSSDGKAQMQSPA
T1 sequence (P03952 20-390 limits assumed, species assumed): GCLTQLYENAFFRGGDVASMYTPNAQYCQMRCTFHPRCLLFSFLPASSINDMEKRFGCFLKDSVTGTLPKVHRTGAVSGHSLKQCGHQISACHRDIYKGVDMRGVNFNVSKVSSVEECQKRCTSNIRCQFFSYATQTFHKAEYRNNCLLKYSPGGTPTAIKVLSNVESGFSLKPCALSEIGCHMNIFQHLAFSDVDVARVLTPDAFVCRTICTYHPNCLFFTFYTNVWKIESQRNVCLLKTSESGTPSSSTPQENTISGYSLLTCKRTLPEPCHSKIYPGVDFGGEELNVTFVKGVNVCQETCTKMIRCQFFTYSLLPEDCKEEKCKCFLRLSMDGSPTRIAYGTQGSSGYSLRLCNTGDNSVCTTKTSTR
activated protein C (APC), sequence (P04070 212-461 limits assumed): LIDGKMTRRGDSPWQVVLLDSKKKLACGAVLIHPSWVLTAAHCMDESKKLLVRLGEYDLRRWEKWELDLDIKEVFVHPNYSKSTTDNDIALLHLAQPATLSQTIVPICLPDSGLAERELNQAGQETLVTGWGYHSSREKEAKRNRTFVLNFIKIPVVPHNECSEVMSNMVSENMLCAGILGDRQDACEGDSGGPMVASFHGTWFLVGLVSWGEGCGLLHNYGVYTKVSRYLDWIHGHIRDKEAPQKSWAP
activated protein C (APC), sequence (P04070 43-197 limits assumed): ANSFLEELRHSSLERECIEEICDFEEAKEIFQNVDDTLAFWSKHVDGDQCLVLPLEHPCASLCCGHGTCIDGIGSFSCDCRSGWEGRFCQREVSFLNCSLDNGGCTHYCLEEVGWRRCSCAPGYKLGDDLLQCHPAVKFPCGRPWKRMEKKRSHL
tissue plasminogen activator (t-PA), sequence (P00750 36-562, species assumed): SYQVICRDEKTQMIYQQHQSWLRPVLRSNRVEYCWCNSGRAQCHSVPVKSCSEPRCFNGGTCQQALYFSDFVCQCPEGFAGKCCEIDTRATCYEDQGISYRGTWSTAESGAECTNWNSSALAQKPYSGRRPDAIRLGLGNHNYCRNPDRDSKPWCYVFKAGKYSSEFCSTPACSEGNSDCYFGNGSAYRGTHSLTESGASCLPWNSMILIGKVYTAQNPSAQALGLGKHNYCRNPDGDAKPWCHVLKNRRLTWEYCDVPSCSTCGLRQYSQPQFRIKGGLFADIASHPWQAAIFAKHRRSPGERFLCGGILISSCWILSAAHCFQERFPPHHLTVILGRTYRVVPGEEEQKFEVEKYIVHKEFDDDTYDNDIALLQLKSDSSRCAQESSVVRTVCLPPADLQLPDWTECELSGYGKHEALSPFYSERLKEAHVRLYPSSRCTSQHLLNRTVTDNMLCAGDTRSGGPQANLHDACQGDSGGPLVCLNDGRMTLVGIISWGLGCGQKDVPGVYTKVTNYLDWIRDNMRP

Structure (SMILES)	Ki [1] [nM]	Ki (Factor Xa (fXa)) [nM]	Ki [2] [nM]	Ki (plasmin (Pl)) [nM]	Ki (bovine trypsin; [8]) [nM]	Ki [3] [nM]	Ki (human α-thrombin; [9]) [nM]	also measured
CNC(=O)C(=O)C(NC(=O)C1CCCN1C(=O)C(Cc1ccccc1)NC)C1CCC(N)CC1 [4-3, H-NMe-D-Phe-Pro-t-D-Acg.PSI.[COCO]--NHMe]								Ki (bovine trypsin; Table 1, 25° C., 0.05M TRIS pH 7.4, 0.15M NaCl, 0.1% PEG, 1 mM CaCl2, listed as drawing 21, read-out: Ki (μM) Trypsin): 7000 nM
CNC(=O)C(=O)C(NC(=O)C1CCCN1C(=O)C(Cc1ccccc1)NC)C1CCC(N)CC1 [4-4, H-NMe-D.-Phe-Pro-t-L-Acg.PSI.[COCO]--NHMe]	> 10000	> 10000	> 10000	> 10000		> 10000		% bioavailable [5]: 5%; Incidence of occlusion ([4]; 1 μg/kg/min i.v. infusion): 3/4; Minutes to occulsion of those occluding ([4]; 1 μg/kg/min i.v. infusion): 21 min; Incidence of occlusion ([4]; 5 μg/kg/min i.v. infusion): 2/4; Minutes to occulsion of those occluding ([4]; 5 μg/kg/min i.v. infusion): 18 to 20 min; Incidence of occlusion ([4]; 10 μg/kg/min i.v. infusion): 0/4; % bioavailable [6]: 5%; Ki (bovine trypsin; Table 1, 25° C., 0.05M TRIS pH 7.4, 0.15M NaCl, 0.1% PEG, 1 mM CaCl2, listed as drawing 22, read-out: Ki (μM) Trypsin): 1150 nM; % bioavailable [7]: 8%
CNC(=O)C(=O)C(CC1CCC(N)CC1)NC(=O)C1CCCN1C(=O)C(Cc1ccccc1)NC (stereo not shown) [vi]								Ki (bovine trypsin; [10]): 1440 nM; Ki (human α-thrombin; [11]): 52 nM; Ratio (human α-thrombin; Table 1): 28
CNC(=O)C(=O)C(NC(=O)C1CCCN1C(=O)C(Cc1ccc(Cl)c(Cl)c1)NC)C1CCC(N)CC1 (stereo not shown) [xii]	> 10000	2300	> 10000	> 10000	660	> 10000	0.025	
CNC(=O)C(=O)C(NC(=O)C1CCCN1C(=O)CCC1CCCCC1)C1CCC(N)CC1 (stereo not shown) [xiii]	> 10000	> 10000	> 10000	> 10000	4000	> 10000	2.2	
CNC(=O)C(=O)C(NC(=O)C1CCCN1C(=O)C(Cc1ccc2ccccc2c1)NC)C1CCC(N)CC1 (stereo not shown) [xiv]	> 10000	9000	> 10000	> 10000	2100	> 10000	0.09	

Further lines, with some results ahead:

Ki [1] [nM]	Ki (Factor Xa (fXa)) [nM]	Ki [2] [nM]	Ki (plasmin (Pl)) [nM]	Ki (bovine trypsin; [8]) [nM]	Ki [3] [nM]	Ki (human α-thrombin; [9]) [nM]	Structure (SMILES)	also measured
> 10000	> 10000	> 10000	> 10000	> 10000	> 10000	4	CNC(=O)C(=O)C(NC(=O)C1CCCN1C(=O)CCc1ccccc1)C1CCC(N)CC1 (mixture of isomers) [ix]	
> 10000	> 10000	> 10000	> 10000	2000	> 10000	0.03	CNC(=O)C(=O)C(NC(=O)C1CCCN1C(=O)CC(c1ccccc1)c1ccccc1)C1CCC(N)CC1 (mixture of isomers) [xv]	
> 10000	> 10000	> 10000	> 10000	120	> 10000	0.6	CNC(Cc1ccccc1)C(=O)N1CCCC1C(=O)NC(C(=O)C(=O)NCc1ccccc1)C1CCC(N)CC1 (mixture of isomers) [xvi]	
9000	> 10000	> 10000	> 10000	120	> 10000	0.07	CNC(Cc1ccccc1)C(=O)N1CCCC1C(=O)NC(C(=O)C(=O)NC1CC1)C1CCC(N)CC1 (mixture of isomers) [xvii]	
> 10000	> 10000	> 10000	> 10000	760	> 10000	0.04	CNC(Cc1ccccc1)C(=O)N1CCCC1C(=O)NC(C(=O)C(=O)N1CCC1)C1CCC(N)CC1 (mixture of isomers) [xviii]	
7000	> 10000	> 10000	> 10000		> 10000		CNC(Cc1ccccc1)C(=O)N1CCCC1C(=O)NC(C(=O)C(=O)O)C1CCC(N)CC1 (racemic) [3-3, H-NMe-D-Phe-Pro-t-DL-AcgY[COCO]--OH]	Incidence of occlusion ([4]; 10 μg/kg/min i.v. infusion): 3/4; Minutes to occulsion of those occluding ([4]; 10 μg/kg/min i.v. infusion): 22 to 24 min; Incidence of occlusion ([4]; 20 μg/kg/min i.v. infusion): 0/4; Incidence of occlusion ([4]; 50 μg/kg/min i.v. infusion): 0/4; Ki (bovine trypsin; [10]): 51 nM; Ki (human α-thrombin; [11]): 0.05 nM; Ratio (human α-thrombin; Table 1): 1000
> 10000	3000	> 10000	6000	310	> 10000	0.07	CNC(=O)C(=O)C(NC(=O)C1CCCN1C(=O)C(CC1CCCCC1)NC)C1CCC(N)CC1 (stereo not shown) [x]	
> 10000	> 10000	> 10000	> 10000	> 10000	> 10000	0.4	CNC(=O)C(=O)C(NC(=O)C1CCCN1C(=O)CCc1ccc(Cl)c(Cl)c1)C1CCC(N)CC1 (stereo not shown) [xi]	
